These results are taken from patent US5466671A, “Apidaecin-type peptide antibiotics with improved activities and/or different antibacterial spectrum” (priority 1994, dated 1995).

What all share (assay type): cell-based
What all share (conditions): 50 nanomoles per well (3 mm diameter)

Test [1] concerns Shigella dysenteriae.
Test [2] concerns Salmonella typhi.
Test [3] has as its system E. coli D22.
For test [4], the system named is Acinetobacter calcoaceticus. In words: Inhibition zone assay (agar plate).
Test [5] relates to Erwinia amylovora. As to the kind of experiment: Inhibition zone assay (agar plate).
For test [6], the system named is Klebsiella pneumoniae. In words: Inhibition zone assay (agar plate).
The subject of test [7] is Salmonella typhimurium. As to the kind of experiment: Inhibition zone assay (agar plate).
The subject of test [8] is Agrobacterium tumefaciens. As to the kind of experiment: Inhibition zone assay (agar plate).
The subject of test [9] is Enterobacter cloacae. As to the kind of experiment: Inhibition zone assay (agar plate).
The test system of test [10] is Escherichia coli (ATCC11775). In words: Inhibition zone assay (agar plate).
Test [11] deals with Pseudomonas syringae. As to the kind of experiment: Inhibition zone assay (agar plate).

Residues, ends and D or L forms follow the SMILES beside them.

`CC[C@H](C)[C@H](NC(=O)[C@@H]1CCCN1C(=O)[C@@H](NC(=O)[C@H](CCC(N)=O)NC(=O)[C@@H]1CCCN1C(=O)[C@H](CO)NC(=O)[C@@H]1CCCN1C(=O)[C@H](CCCNC(=N)N)NC(=O)[C@@H](N)CO)C(C)C)C(=O)N[C@@H](CCCNC(=N)N)C(=O)N1CCC[C@H]1C(=O)N[C@@H](CO)C(=O)N[C@@H](CCC(N)=O)C(=O)N1CCC[C@H]1C(=O)N[C@@H](CCCNC(=N)N)C(=O)N1CCC[C@H]1C(=O)N[C@@H](CCC(N)=O)C(=O)N1CCC[C@H]1C(=O)NCC(=O)N[C@@H](CCCCN)C(=O)N1CCC[C@H]1C(=O)N[C@@H](CCCNC(=N)N)C(=O)N1CCC[C@H]1C(=O)N[C@@H](CCC(N)=O)C(=O)N[C@@H](CCC(N)=O)C(=O)N[C@H](C(=O)N1CCC[C@H]1C(=O)N1CCC[C@H]1C(=O)N[C@@H](CCCNC(=N)N)C(=O)N1CCC[C@H]1C(=O)N1CCC[C@H]1C(=O)N[C@@H](Cc1c[nH]cn1)C(=O)N1CCC[C@H]1C(=O)N[C@@H](CCCNC(=N)N)C(=O)N[C@@H](CC(C)C)C(=O)O)C(C)C` [PAB-GP, SRPSPQVPIRPSQPRPQPGKPRPQQVPPRPPHPRL] (H-SRPSPQVPIRPSQPRPQPGKPRPQQVPPRPPHPRL-OH): the “Inhibition zones: in mm diameter” value in test [1] is 11 mm; in test [2], 13 mm; in [3], 14 mm; in test [4], 9 mm; in test [5], 5 mm; in [6], 9 mm. Besides, the “Inhibition zones: in mm diameter” value in test [7] is 6 mm; in test [8], 8 mm; in [9] it was 13 mm; in test [10] it was 10 mm; in test [11], 6 mm.
